From article PMC7079008, “Compactness of Protein Folds Alters Disulfide‐Bond Reducibility by Three Orders of Magnitude: A Comprehensive Kinetic Case Study on the Reduction of Differently Sized Tryptophan Cage Model Proteins” (Chembiochem, 2019)
Where a SMILES comes first, the peptide text is derived from it. Bridges are numbered along the chain shown (N, C = ends).

Assay: SS bond reduction by TCEP monitored by 1H NMR
Format: physicochemical
Details: 1.7 mM protein, twofold excess of TCEP, 15 °C, pH 7; for TCEP: Elapsed time to steady state / TCEP: k1 / TCEP: t1/2 of reduction: 1H NMR; for TCEP: Conversion rate: 1H NMR Trp Hε1 integrals; for TCEP: k1: parameter estimation; for TCEP: t1/2 of reduction: calculated from k1 (Eq. 12)
Excerpt: The SS bond reduction by TCEP is a bimolecular nucleophilic substitution (SN2) reaction.37 Thus, both the concentration of the oxidized form of the protein [_SS] and that of the RA contribute to the rate of the reduction. In an ideal case, we should consider only nucleophilic attack of the RA (k 1), but, as we explained previously, in practice, we also have to take into account back oxidation (k 2), which takes place simultaneously, and, in some cases, depending on the size and shape of the protein, precipitation (k 3; Figure 5). The mechanism of reduction, therefore, can be described by Equations (2), (3), (4):(2) SS+RAred→k12SH+RAox (3) 2SH+O2→k2SS (4) 2SH→k3SSprecipitated
By fitting this model to the concentration–time functions determined by means of NMR spectroscopy, k 1, k 2, and k 3 can be determined, and half‐lives can be calculated. We focused on the determination of the reduction rate constants k 1; therefore, sampling was more frequent in the reduction phase (stage I; Figure 5 B). Based on parameter estimation (see the Experimental Section), k 2 and k 3 are very often either negligibly small, or, due to a lack of sufficient data, cannot be confidently estimated. Obtaining key kinetic parameters allowed us to describe and compare the reduction kinetics of the SS‐containing miniproteins under various experimental conditions. Some protocols reported in the literature apply extreme conditions, such as high temperature (e.g., 50–80 °C), to obtain short reduction times; this is clearly unsuitable for maintaining the integrity of the protein, or >20‐fold molar excess of reagent. By performing the reduction of E19_SS (0.8 mM) under such conditions (60 °C with 18‐fold TCEP excess), the reaction seemed almost instantaneous (t 1/2<5 min), but the sample became opalescent and side reactions (e.g., precipitation) were instantly detected. Similarly to most globular proteins, the conformational ensemble of E19_2SH at 60 °C is distinctly different from that of 15 °C; thus presenting many more unfolded states. The folded fraction of E19_2SH is 64 % at 15 °C, whereas it is 41 % at 60 °C, according to FUV‐ECD analysis. Instead of intramolecular reoxidation, undesirable intermolecular reoxidation might occur between particles. […] In principle, the reduction rate can be enhanced at lower T by increasing the TCEP molar ratio (15–20‐fold molar excess); however, this also triggers obscure unwanted processes (Figure S5). Experiments were repeated at different temperatures (15, 25, and 37 °C) with 0.8 mM protein and 18‐fold excess of TCEP (Table 2 and Figure S6). The Arrhenius equation allows the activation energy (E a) of the redox reaction to be derived, resulting in a value of about 44.3 kJ mol^−1. For comparison, the activation energy of thiol–disulfide exchange between methylthiolate and oxidized DTT was calculated to be 62 kJ mol^−1.76 Both FUV‐ECD and NMR spectroscopy derived structural information support the high conformational similarity between E19_SS and E19_2SH; therefore, E a is likely to be used for the redox reaction, rather than for the conformational switch between the two conformational states (Table 1). […] Additional experiments were performed to investigate the effect of the protein/RA ratio as a practical perspective (Figure S7). The above‐described NMR spectroscopy methodology provides high‐resolution information about the reduction mechanism, relative to that of the more rapid NUV‐ECD approach, and thus, details of the reduction of all four −SS− protein models were obtained through NMR spectroscopy.
Monitoring reduction kinetics: Peptide samples were prepared between 0.8 and 1.8 mM in 50 mM NaH2PO4–Na2HPO4 buffer (600 μL, pH 6.95), with 10 % D2O. A 0.1 M solution of NaOH was used to set the pH to 7. […]

SMILES | TCEP: Elapsed time to steady state | TCEP: Conversion rate [%] | TCEP: k1 [M⁻¹ s⁻¹] | TCEP: t1/2 of reduction [min]
CC[C@H](C)[C@@H]1NC(=O)[C@H](Cc2ccc(O)cc2)NC(=O)[C@H](CC(C)C)NC(=O)[C@H](CCCNC(=N)N)NC(=O)[C@H](C(C)C)NC(=O)[C@@H](N)CSSC[C@@H](C(=O)O)NC(=O)[C@@H]2CCCN2C(=O)[C@@H]2CCCN2C(=O)[C@@H]2CCCN2C(=O)[C@H](CCCNC(=N)N)NC(=O)CNC(=O)[C@H](CO)NC(=O)[C@H](CO)NC(=O)[C@@H]2CCCN2C(=O)CNC(=O)CNC(=O)[C@H](CC(=O)O)NC(=O)[C@H](CCCCN)NC(=O)[C@H](CC(C)C)NC(=O)[C@H](Cc2c[nH]c3ccccc23)NC(=O)[C@H](CCC(N)=O)NC1=O [E2_SS] (H-CVRLYIQWLKDGGPSSGRPPPC-OH; disulfide 1-22) | <5 min | 100 | – | –
CC[C@H](C)[C@@H]1NC(=O)[C@H](Cc2ccc(O)cc2)NC(=O)[C@H](CC(C)C)NC(=O)[C@H](CCCNC(=N)N)NC(=O)[C@H](C(C)C)NC(=O)[C@@H](NC(=O)[C@H](CCC(=O)O)NC(=O)[C@H](CCC(=O)O)NC(=O)[C@H](CCC(=O)O)NC(=O)[C@H](CCSC)NC(=O)[C@H](CCC(N)=O)NC(=O)[C@H](CCCCN)NC(=O)[C@H](CO)NC(=O)[C@H](CC(C)C)NC(=O)[C@@H](N)CC(=O)O)CSSC[C@@H](C(=O)O)NC(=O)[C@@H]2CCCN2C(=O)[C@@H]2CCCN2C(=O)[C@@H]2CCCN2C(=O)[C@H](CCCNC(=N)N)NC(=O)CNC(=O)[C@H](CO)NC(=O)[C@H](CO)NC(=O)[C@@H]2CCCN2C(=O)CNC(=O)CNC(=O)[C@H](CC(=O)O)NC(=O)[C@H](CCCCN)NC(=O)[C@H](CC(C)C)NC(=O)[C@H](Cc2c[nH]c3ccccc23)NC(=O)[C@H](CCC(N)=O)NC1=O [E11_SS] (H-DLSKQMEEECVRLYIQWLKDGGPSSGRPPPC-OH; disulfide 10-31) | ≈5–6 h | 94 | 0.0613 | 67
CC[C@H](C)[C@@H]1NC(=O)[C@H](Cc2ccc(O)cc2)NC(=O)[C@H](CC(C)C)NC(=O)[C@H](CCCNC(=N)N)NC(=O)[C@H](C(C)C)NC(=O)[C@@H](NC(=O)[C@H](CCC(=O)O)NC(=O)[C@H](CCC(=O)O)NC(=O)[C@@H](N)CCC(=O)O)CSSC[C@@H](C(=O)O)NC(=O)[C@@H]2CCCN2C(=O)[C@@H]2CCCN2C(=O)[C@@H]2CCCN2C(=O)[C@H](CCCNC(=N)N)NC(=O)CNC(=O)[C@H](CO)NC(=O)[C@H](CO)NC(=O)[C@@H]2CCCN2C(=O)CNC(=O)CNC(=O)[C@H](CC(=O)O)NC(=O)[C@H](CCCCN)NC(=O)[C@H](CC(C)C)NC(=O)[C@H](Cc2c[nH]c3ccccc23)NC(=O)[C@H](CCC(N)=O)NC1=O [E5_SS] (H-EEECVRLYIQWLKDGGPSSGRPPPC-OH; disulfide 4-25) | ≈1 h | 93 | 0.308 | 14
